Test results as given in ChEMBL document CHEMBL4043146, “Macrocyclic factor XIa inhibitors” (Bioorg Med Chem Lett, 2017).

Key:
[1] = tested on: Plasma; experiment: Anticoagulant activity in human plasma assessed as concentration required to produce 50% increase in activated partial thromboplastin time relative to baseline control; assay type: functional
[2] = target: Coagulation factor XI (Homo sapiens, UniProt P03951); experiment: Inhibition of human F11a using peptide substrate by spectrophotometry
Chain of Coagulation factor XI (P03951 19-387 limits assumed): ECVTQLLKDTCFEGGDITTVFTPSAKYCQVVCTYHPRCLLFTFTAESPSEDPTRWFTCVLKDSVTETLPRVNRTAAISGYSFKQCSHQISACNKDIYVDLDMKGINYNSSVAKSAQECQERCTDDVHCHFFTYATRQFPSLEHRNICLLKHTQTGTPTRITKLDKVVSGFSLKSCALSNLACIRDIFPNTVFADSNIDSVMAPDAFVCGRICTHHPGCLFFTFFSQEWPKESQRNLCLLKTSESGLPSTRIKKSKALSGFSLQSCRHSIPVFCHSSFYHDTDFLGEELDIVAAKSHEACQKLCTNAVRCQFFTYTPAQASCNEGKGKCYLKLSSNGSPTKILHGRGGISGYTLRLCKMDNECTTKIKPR
Chain of Coagulation factor XI (P03951 388-625 limits assumed): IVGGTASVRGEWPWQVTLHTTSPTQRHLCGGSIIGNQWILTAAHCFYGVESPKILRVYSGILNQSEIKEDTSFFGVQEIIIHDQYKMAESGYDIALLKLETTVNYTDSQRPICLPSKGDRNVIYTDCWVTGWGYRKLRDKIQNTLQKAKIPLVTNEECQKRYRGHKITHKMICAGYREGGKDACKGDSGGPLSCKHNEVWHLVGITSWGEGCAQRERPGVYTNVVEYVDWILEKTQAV

[3] = Binding affinity to trypsin (unknown origin); set-up: species or system Homo sapiens
[4] = target: Coagulation factor X (Homo sapiens, UniProt P00742); experiment: Binding affinity to F10a (unknown origin)
Chain of Coagulation factor X (P00742 41-179 limits assumed): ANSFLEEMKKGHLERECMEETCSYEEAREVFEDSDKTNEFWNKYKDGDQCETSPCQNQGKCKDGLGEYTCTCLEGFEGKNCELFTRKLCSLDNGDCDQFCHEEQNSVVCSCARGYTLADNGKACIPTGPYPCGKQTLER
Chain of Coagulation factor X (P00742 235-488 limits assumed): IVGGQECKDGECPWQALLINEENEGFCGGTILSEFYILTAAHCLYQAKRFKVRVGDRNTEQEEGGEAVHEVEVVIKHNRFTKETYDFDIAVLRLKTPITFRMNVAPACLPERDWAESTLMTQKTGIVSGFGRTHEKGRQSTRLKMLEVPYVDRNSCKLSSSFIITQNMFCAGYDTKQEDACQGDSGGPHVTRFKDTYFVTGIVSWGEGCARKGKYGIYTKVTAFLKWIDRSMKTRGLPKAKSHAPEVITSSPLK

[5] = target: Prothrombin (Homo sapiens, UniProt P00734); experiment: Binding affinity to F2a (unknown origin)
[6] = target: T1, Coagulation factor VII (Homo sapiens, UniProt P08709); experiment: Binding affinity to F7a (unknown origin)
T1 sequence (P08709 whole entry): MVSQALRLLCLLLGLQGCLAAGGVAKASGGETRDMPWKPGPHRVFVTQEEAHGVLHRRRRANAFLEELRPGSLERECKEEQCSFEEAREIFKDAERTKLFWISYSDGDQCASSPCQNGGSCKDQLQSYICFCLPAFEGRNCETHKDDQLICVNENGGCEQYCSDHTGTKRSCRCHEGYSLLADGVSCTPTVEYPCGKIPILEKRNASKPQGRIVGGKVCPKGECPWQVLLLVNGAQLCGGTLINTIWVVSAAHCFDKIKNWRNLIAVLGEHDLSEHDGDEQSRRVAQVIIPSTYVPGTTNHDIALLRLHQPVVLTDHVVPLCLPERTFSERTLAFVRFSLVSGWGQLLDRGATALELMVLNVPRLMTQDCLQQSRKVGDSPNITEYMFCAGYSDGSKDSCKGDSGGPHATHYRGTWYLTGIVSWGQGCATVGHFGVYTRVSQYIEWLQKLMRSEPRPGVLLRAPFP

| Compound | Ki [2] [nM] | Activity [1] [µM] | other results |
| --- | --- | --- | --- |
| COC(=O)Nc1ccc2c(c1)CCCCc1cccc(c1)C[C@H](NC(=O)/C=C/c1cc(Cl)ccc1-n1cnnn1)c1nc-2c(Cl)[nH]1 | – | 34 | – |
| COC(=O)Nc1ccc2c(c1)CNC(=O)c1cccc(c1)C[C@H](NC(=O)/C=C/c1cc(Cl)ccc1-n1cnnn1)c1nc-2c[nH]1 | 500 | – | – |
| COC(=O)Nc1ccc2c(c1)NC(=O)CCc1cc(ccc1F)C[C@H](NC(=O)/C=C/c1cc(Cl)ccc1-n1cnnn1)c1nc-2c[nH]1 | 0.53 | 1.4 | – |
| COC(=O)Nc1ccc2c(c1)NC(=O)CCc1nc(ccc1F)C[C@H](NC(=O)/C=C/c1cc(Cl)ccc1-n1cnnn1)c1nc-2c[nH]1 | 0.02 | 0.27 | Ki [3]: 670 nM; Ki [4]: 1400 nM; Ki [5]: > 13000 nM; Ki [6]: 1100 nM |
| COC(=O)Nc1ccc2c(c1)CNC(=O)c1cccc(c1)C[C@H](NC(=O)/C=C/c1cc(Cl)ccc1-n1cnnn1)c1nc-2c(Cl)[nH]1 | 92 | – | – |
| COC(=O)Nc1ccc2c(c1)CCCCc1cccc(c1)C[C@H](NC(=O)/C=C/c1cc(Cl)ccc1-n1cnnn1)c1nc-2c[nH]1 | 17 | 23 | – |

Further molecules by falling Ki [2], results first:

| Ki [2] [nM] | Compound | Activity [1] [µM] | other results |
| --- | --- | --- | --- |
| 6400 | COC(=O)Nc1ccc2c(c1)CNC(=O)c1ccc(cc1)C[C@H](NC(=O)/C=C/c1cc(Cl)ccc1-n1cnnn1)c1nc-2c[nH]1 | – | – |
| 1.5 | COC(=O)Nc1ccc2c(c1)NC(=O)CCc1cccc(c1)C[C@H](NC(=O)/C=C/c1cc(Cl)ccc1-n1cnnn1)c1nc-2c[nH]1 | 2.1 | – |
| 0.32 | COC(=O)Nc1ccc2c(c1)NC(=O)CCc1cccc(n1)C[C@H](NC(=O)/C=C/c1cc(Cl)ccc1-n1cnnn1)c1nc-2c[nH]1 | 0.27 to 0.4 | – |
